Assay results from patent US9505762B2, “Purine derivatives as CB2 receptor agonists” (Hoffmann-La Roche Inc., priority 2013, dated 2016).

Legend:
[1] = target: human CB1 receptors (Homo sapiens (Human), UniProt P21554); assay: functional cAMP assay, CB1; assay type: cell-based; conditions: CHO cells expressing human CB1
Description: (§1) The growth medium was exchanged with Krebs Ringer Bicarbonate buffer with 1 mM IBMX and incubated at 30° C. for 30 min. Compounds were added to a final assay volume of 100 μl and incubated for 30 min at 30° C. Using the cAMP-Nano-TRF detection kit the assay (Roche Diagnostics) was stopped by the addition of 50 μl lysis reagent (Tris, NaCl, 1.5% Triton X100, 2.5% NP40, 10% NaN3) and 50 μl detection solutions (20 μM mAb Alexa700-cAMP 1:1, and 48 μM Ruthenium-2-AHA-cAMP) and shaken for 2 h at room temperature. The time-resolved energy transfer is measured by a TRF reader (Evotec Technologies GmbH), equipped with a ND:YAG laser as excitation source. The plate is measured twice with the excitation at 355 nm and at the emission with a delay of 100 ns and a gate of 100 ns, total exposure time 10 s at 730 (bandwidth 30 nm) or 645 nm (bandwidth 75 nm), respectively.
(§2) EC50 values were determined using Activity Base analysis (ID Business Solution, Limited).

[2] = target: human CB2 receptors (Homo sapiens (Human), UniProt P34972); assay: functional cAMP assay, CB2; assay type: cell-based; conditions: CHO cells expressing human CB2
Description: as §1, §2

Chain of human CB2 receptors (P34972 whole entry): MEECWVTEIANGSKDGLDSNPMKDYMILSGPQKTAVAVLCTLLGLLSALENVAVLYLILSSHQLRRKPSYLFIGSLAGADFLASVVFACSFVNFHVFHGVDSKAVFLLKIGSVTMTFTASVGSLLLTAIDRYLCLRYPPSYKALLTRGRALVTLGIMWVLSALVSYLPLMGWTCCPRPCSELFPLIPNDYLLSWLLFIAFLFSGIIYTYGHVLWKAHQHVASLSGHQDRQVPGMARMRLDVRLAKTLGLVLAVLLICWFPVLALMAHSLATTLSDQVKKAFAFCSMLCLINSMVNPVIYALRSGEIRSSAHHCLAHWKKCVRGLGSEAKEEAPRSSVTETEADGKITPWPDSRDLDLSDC
Chain of human CB1 receptors (P21554 whole entry): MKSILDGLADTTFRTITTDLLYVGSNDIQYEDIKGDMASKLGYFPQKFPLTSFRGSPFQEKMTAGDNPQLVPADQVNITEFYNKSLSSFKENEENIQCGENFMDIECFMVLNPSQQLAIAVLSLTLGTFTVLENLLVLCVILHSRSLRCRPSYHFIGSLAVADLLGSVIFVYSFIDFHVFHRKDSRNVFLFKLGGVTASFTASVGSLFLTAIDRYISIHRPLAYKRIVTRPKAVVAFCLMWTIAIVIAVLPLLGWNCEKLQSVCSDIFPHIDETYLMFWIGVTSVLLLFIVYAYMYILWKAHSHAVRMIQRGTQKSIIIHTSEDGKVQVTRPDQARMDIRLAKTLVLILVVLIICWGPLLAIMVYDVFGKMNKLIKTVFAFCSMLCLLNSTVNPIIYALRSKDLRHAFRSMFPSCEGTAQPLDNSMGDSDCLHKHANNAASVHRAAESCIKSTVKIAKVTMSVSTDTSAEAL

Which EC50 [1] does the source give for `Cc1noc(Cn2cnc3c(N4CC[C@H](O)C4)nc(C(C)(C)C)nc32)n1` [Example 101, (3S)-1-[2-tert-butyl-9-[(3-methyl-1,2,4-oxadiazol-5-yl)methyl]purin-6-yl]pyrrolidin-3-ol] here?
Its EC50 is > 10000 nM.

And the EC50 [2]?
The EC50 was 370 nM.

Which EC50 [1] does the source give for `CC(=O)N[C@H]1CCN(c2nc(C(C)(C)C)nc3c2ncn3Cc2ccc(Cl)cc2)C1` [Example 50, N—[(S)-1-[2-tert-butyl-9-[(4-chlorophenyl)methyl]purin-6-yl]pyrrolidin-3-yl]acetamide] here?
The EC50 was > 10000 nM.

And the EC50 [2]?
The EC50 was 534 nM.

For `Cc1nnc(Cn2cnc3c(N4CCC(F)(F)C4)nc(C(C)(C)C)nc32)o1` [Example 11, 2-[[2-tert-butyl-6-(3,3-difluoropyrrolidin-1-yl)purin-9-yl]methyl]-5-methyl-1,3,4-oxadiazole], which EC50 [1] is on record?
The EC50 was > 10000 nM.

What about the EC50 [2] of the same compound?
Its EC50 is 61.7 nM.

Which EC50 [1] does the source give for `CC(C)(C)Nc1nc(N2CCC(F)(F)C2)c2ncn(Cc3ncccc3Cl)c2n1` [Example 112, N-tert-butyl-9-[(3-chloropyridin-2-yl)methyl]-6-(3,3-difluoropyrrolidin-1-yl)purin-2-amine] here?
Its EC50 is > 10000 nM.

What about the EC50 [2] of the same compound?
Its EC50 is 7.9 nM.

How did the EC50 [1] turn out when `CC(=O)N[C@H]1CCN(c2nc(C(C)(C)C)nc3c2ncn3CCC(F)(F)F)C1` [Example 103, N-[(3S)-1-[2-tert-butyl-9-(3,3,3-trifluoropropyl)purin-6-yl]pyrrolidin-3-yl]acetamide] was run?
Its EC50 is > 10000 nM.

And the EC50 [2]?
Its EC50 is 211 nM.

Which EC50 [1] does the source give for `CC(C)(C)c1nc(N2CCC(F)(F)C2)c2ncn(C3CCOC3)c2n1` (centres unmarked) [Example 12, 2-tert-butyl-6-(3,3-difluoropyrrolidin-1-yl)-9-(oxolan-3-yl)purine] here?
Its EC50 is > 10000 nM.

What about the EC50 [2] of the same compound?
Its EC50 is 3.1 nM.

`CC(C)(C)COc1nc(N2CC3(COC3)C2)c2ncn(Cc3ccccc3Cl)c2n1` [Example 143, 6-[9-[(2-chlorophenyl)methyl]-2-(2,2-dimethylpropoxy)purin-6-yl]-2-oxa-6-azaspiro[3.3]heptane] was tested. Which EC50 [1] did it give?
The EC50 was > 10000 nM.

What about the EC50 [2] of the same compound?
Its EC50 is 268 nM.

`CC1(O)CCN(c2nc(NC(C)(C)C)nc3c2ncn3Cc2ccccc2C(F)(F)F)C1` (centres unmarked) [Example 121, 1-[2-(tert-butylamino)-9-[[2-(trifluoromethyl)phenyl]methyl]purin-6-yl]-3-methylpyrrolidin-3-ol] was tested. Which EC50 [1] did it give?
The EC50 was > 10000 nM.

What about the EC50 [2] of the same compound?
The EC50 was 41.3 nM.

What does the source list for `CC(C)(C)Nc1nc(N2CC[C@H](O)C2)c2ncn(Cc3ccccc3Cl)c2n1` [Example 116, (3S)-1-[2-(tert-butylamino)-9-[(2-chlorophenyl)methyl]purin-6-yl]pyrrolidin-3-ol]?
EC50 [1]: > 10000 nM; EC50 [2]: 12.1 nM

What does the source list for `CC(=O)N[C@H]1CCN(c2nc(C(C)(C)C)nc3c2ncn3Cc2n[nH]cc2C(F)(F)F)C1` [Example 77, N—[(S)-1-[2-tert-butyl-9-[[4-(trifluoromethyl)-1H-pyrazol-3-yl]methyl]purin-6-yl]pyrrolidin-3-yl]acetamide]?
EC50 [1]: > 10000 nM; EC50 [2]: 205 nM

Which results are given for `CC(C)(C)c1nc(N2CCC(O)C2)c2ncn(Cc3c[nH]nc3C(F)(F)F)c2n1` (centres unmarked) [Example 44, 1-[2-tert-butyl-9-[[3-(trifluoromethyl)-1H-pyrazol-4-yl]methyl]purin-6-yl]pyrrolidin-3-ol]?
EC50 [1]: > 10000 nM; EC50 [2]: 14.8 nM

What does the source list for `CC(C)(C)c1nc(N2CC(F)(F)C(F)(F)C2)c2ncn(CCC(F)(F)F)c2n1` [Example 93, 2-tert-butyl-6-(3,3,4,4-tetrafluoropyrrolidin-1-yl)-9-(3,3,3-trifluoropropyl)purine]?
EC50 [1]: > 10000 nM; EC50 [2]: 89.8 nM

Which EC50 [1] does the source give for `CC(C)(C)COc1nc(N2CCC(C)(O)C2)c2ncn(Cc3ccccc3C(F)(F)F)c2n1` (centres unmarked) [Example 132, 1-[2-(2,2-dimethylpropoxy)-9-[[2-(trifluoromethyl)phenyl]methyl]purin-6-yl]-3-methylpyrrolidin-3-ol] here?
The EC50 was > 10000 nM.

And the EC50 [2]?
The EC50 was 22.1 nM.

Which EC50 [1] does the source give for `CC(C)(C)c1nc(N2CCC(O)C2)c2ncn(CC3CCCCC3)c2n1` (centres unmarked) [Example 40, 1-[2-tert-butyl-9-(cyclohexylmethyl)purin-6-yl]pyrrolidin-3-ol] here?
Its EC50 is > 10000 nM.

And the EC50 [2]?
Its EC50 is 71.2 nM.

Which results are given for `CC(C)(C)c1nc(N2CCC(O)C2)c2ncn(Cc3ccccc3Cl)c2n1` (centres unmarked) [Example 22, 1-[2-tert-butyl-9-[(2-chlorophenyl)methyl]purin-6-yl]pyrrolidin-3-ol]?
EC50 [1]: > 10000 nM; EC50 [2]: 5.7 nM

What does the source list for `CC(C)(C)c1nc(N2CCC3(COC3)C2)c2ncn(CCC(F)(F)F)c2n1` [Example 89, 7-[2-tert-butyl-9-(3,3,3-trifluoropropyl)purin-6-yl]-2-oxa-7-azaspiro[3.4]octane]?
EC50 [1]: > 10000 nM; EC50 [2]: 573 nM

For `Cc1noc(Cn2cnc3c(N4CCC(F)(F)C4)nc(C(C)(C)C)nc32)n1` [Example 7, 5-[[2-tert-butyl-6-(3,3-difluoropyrrolidin-1-yl)purin-9-yl]methyl]-3-methyl-1,2,4-oxadiazole], which EC50 [1] is on record?
Its EC50 is > 10000 nM.

What about the EC50 [2] of the same compound?
Its EC50 is 34.7 nM.

What does the source list for `CC(C)(C)c1nc(N2CCC(O)C2)c2ncn(Cc3cccc(Cl)c3)c2n1` (centres unmarked) [Example 25, 1-[2-tert-butyl-9-[(3-chlorophenyl)methyl]purin-6-yl]pyrrolidin-3-ol]?
EC50 [1]: > 10000 nM; EC50 [2]: 58.8 nM

How did the EC50 [1] turn out when `CC(C)(C)c1nc(N2CCC(F)(F)C2)c2ncn(Cc3ccccc3S(C)(=O)=O)c2n1` [Example 18, 2-tert-butyl-6-(3,3-difluoropyrrolidin-1-yl)-9-[(2-methylsulfonylphenyl)methyl]purine] was run?
The EC50 was > 10000 nM.

And the EC50 [2]?
Its EC50 is 3.3 nM.

How did the EC50 [1] turn out when `CC(C)(C)c1nc(N2CC[C@H](O)C2)c2ncn(Cc3nnnn3C3CC3)c2n1` [Example 139, (3S)-1-[2-tert-butyl-9-[(1-cyclopropyltetrazol-5-yl)methyl]purin-6-yl]pyrrolidin-3-ol] was run?
The EC50 was > 10000 nM.

And the EC50 [2]?
Its EC50 is 201 nM.

Which results are given for `CC(C)(C)COc1nc(N2CCC(C)(O)C2)c2ncn(Cc3ccccc3Cl)c2n1` (centres unmarked) [Example 131, 1-[9-[(2-chlorophenyl)methyl]-2-(2,2-dimethylpropoxy)purin-6-yl]-3-methyl pyrrolidin-3-ol]?
EC50 [1]: > 10000 nM; EC50 [2]: 66.7 nM

What does the source list for `CC(=O)N[C@H]1CCN(c2nc(C(C)(C)C)nc3c2ncn3Cc2c[nH]nc2C(F)(F)F)C1` [Example 75, N—[(S)-1-[2-tert-butyl-9-[[3-(trifluoromethyl)-1H-pyrazol-4-yl]methyl]purin-6-yl]pyrrolidin-3-yl]acetamide]?
EC50 [1]: > 10000 nM; EC50 [2]: 280 nM

Which EC50 [1] does the source give for `CC(=O)N[C@H]1CCN(c2nc(C(C)(C)C)nc3c2ncn3Cc2cccc(Cl)c2)C1` [Example 49, N—[(S)-1-[2-tert-butyl-9-[(3-chlorophenyl)methyl]purin-6-yl]pyrrolidin-3-yl]acetamide] here?
Its EC50 is > 10000 nM.

And the EC50 [2]?
The EC50 was 311 nM.

For `CC(C)(C)c1nc(N2CCSC2)c2ncn(Cc3ncccc3Cl)c2n1` [Example 161, 3-[2-tert-butyl-9-[(3-chloropyridin-2-yl)methyl]purin-6-yl]-1,3-thiazolidine], which EC50 [1] is on record?
Its EC50 is > 10000 nM.

And the EC50 [2]?
Its EC50 is 12.6 nM.

With `Cn1nnnc1Cn1cnc2c(N3CC[C@H](O)C3)nc(C(C)(C)C)nc21` [Example 95, (3S)-1-[2-tert-butyl-9-[(1-methyltetrazol-5-yl)methyl]purin-6-yl]pyrrolidin-3-ol] as the compound, how does the EC50 [1] read?
The EC50 was > 10000 nM.

And the EC50 [2]?
Its EC50 is 363 nM.

Which results are given for `Cc1noc(Cn2cnc3c(N4CC5(COC5)C4)nc(NC(C)(C)C)nc32)n1` [Example 141, N-tert-butyl-9-[(3-methyl-1,2,4-oxadiazol-5-yl)methyl]-6-(2-oxa-6-azaspiro[3.3]heptan-6-yl)purin-2-amine]?
EC50 [1]: > 10000 nM; EC50 [2]: 40.9 nM

`Cc1nonc1Cn1cnc2c(N3CCSC3)nc(C(C)(C)C)nc21` [Example 150, 3-[[2-tert-butyl-6-(1,3-thiazolidin-3-yl)purin-9-yl]methyl]-4-methyl-1,2,5-oxadiazole] was tested. Which EC50 [1] did it give?
The EC50 was > 10000 nM.

And the EC50 [2]?
Its EC50 is 10.5 nM.

With `CC(C)(C)c1nc(N2CCC3(COC3)C2)c2ncn(Cc3ccccc3C(F)(F)F)c2n1` [Example 59, 7-[2-tert-butyl-9-[[2-(trifluoromethyl)phenyl]methyl]purin-6-yl]-2-oxa-7-azaspiro[3.4]octane] as the compound, how does the EC50 [1] read?
Its EC50 is > 10000 nM.

What about the EC50 [2] of the same compound?
The EC50 was 16.7 nM.

`CC(C)(C)c1nc(N2CCC(O)C2)c2ncn(CCc3ccccc3)c2n1` (centres unmarked) [Example 38, 1-[2-tert-butyl-9-(2-phenylethyl)purin-6-yl]pyrrolidin-3-ol] was tested. Which EC50 [1] did it give?
The EC50 was > 10000 nM.

What about the EC50 [2] of the same compound?
The EC50 was 20.3 nM.

Which results are given for `CC1(O)CCN(c2nc(C(C)(C)C)nc3c2ncn3Cc2ccccc2Cl)C1` (centres unmarked) [Example 64, 1-[2-tert-butyl-9-[(2-chlorophenyl)methyl]purin-6-yl]-3-methylpyrrolidin-3-ol]?
EC50 [1]: > 10000 nM; EC50 [2]: 13.4 nM

`COCCn1cnc2c(N3CCC(O)C3)nc(C(C)(C)C)nc21` (centres unmarked) [Example 37, 1-[2-tert-butyl-9-(2-methoxyethyl)purin-6-yl]pyrrolidin-3-ol] was tested. Which EC50 [1] did it give?
The EC50 was > 10000 nM.

And the EC50 [2]?
The EC50 was 274 nM.

With `CC(C)(C)c1nc(N2CCC3(COC3)C2)c2ncn(Cc3cccnc3Cl)c2n1` [Example 61, 7-[2-tert-butyl-9-[(2-chloropyridin-3-yl)methyl]purin-6-yl]-2-oxa-7-azaspiro[3.4]octane] as the compound, how does the EC50 [1] read?
The EC50 was > 10000 nM.

And the EC50 [2]?
Its EC50 is 29.6 nM.

Which results are given for `CC(=O)N[C@H]1CCN(c2nc(C(C)(C)C)nc3c2ncn3Cc2ncccc2Cl)C1` [Example 54, N—[(S)-1-[2-tert-butyl-9-[(3-chloropyridin-2-yl)methyl]purin-6-yl]pyrrolidin-3-yl]acetamide]?
EC50 [1]: > 10000 nM; EC50 [2]: 388 nM

Which EC50 [1] does the source give for `CC(C)(C)c1nc(N2CCC3(C2)CC3(F)F)c2ncn(Cc3ncccc3Cl)c2n1` (centres unmarked) [Example 168, 2-tert-butyl-9-[(3-chloropyridin-2-yl)methyl]-6-(2,2-difluoro-5-azaspiro[2.4]heptan-5-yl)purine] here?
Its EC50 is > 10000 nM.

And the EC50 [2]?
The EC50 was 32.4 nM.
